This note sets out measurements from ChEMBL document CHEMBL1147339, “Combination effects of antifungal nagilactones against Candida albicans and two other fungi with phenylpropanoids” (1993).

Test [1] relates to Saccharomyces cerevisiae. The test can be described thus: Antifungal activity against Saccharomyces cerevisiae ATCC 7754 after 2 days by broth dilution method. Particulars: ATCC 7754, 48 h. It counts as functional.
In test [2] the test system is Candida albicans. The test can be described thus: Antifungal activity against Candida albicans ATCC 18804 after 2 days by broth dilution method. The format is functional. As to conditions: ATCC 18804, 48 h.
Test [3] relates to Malassezia furfur. Kind of test: Antifungal activity against Pityrosporum ovale ATCC 14521 after 3 days by broth dilution method. The format is functional. As to conditions: ATCC 14521, 72 h. Background: In broth dilution the organism is exposed to a series of concentrations in liquid medium.
In test [4] the test system is Saccharomyces cerevisiae. Kind of test: Antifungal activity against Saccharomyces cerevisiae ATCC 7754 at 800 ug/mL after 2 days by broth dilution method. It counts as functional. Particulars: ATCC 7754, 48 h.
In test [5] the test system is Corynebacterium ammoniagenes. Kind of test: Antimicrobial activity against Brevibacterium ammoniagenes ATCC 6872 up to 800 ug/mL after 2 days by broth dilution method. The format is functional, organism-based.
A further test has as its system Staphylococcus aureus. Kind of test: Antimicrobial activity against Staphylococcus aureus ATCC 12598 up to 800 ug/mL after 2 days by broth dilution method. The format is functional, organism-based.
For a further test, the system named is Streptococcus mutans. Kind of test: Antimicrobial activity against Streptococcus mutans ATCC 25175 up to 800 ug/mL after 2 days by broth dilution method. The format is functional, organism-based.
The next test has as its system Cutibacterium acnes. Kind of test: Antimicrobial activity against Propionibacterium acnes ATCC 11827 up to 800 ug/mL after 2 days by broth dilution method. It counts as functional, organism-based.
For another test, the system named is Escherichia coli. Kind of test: Antimicrobial activity against Escherichia coli ATCC 9637 up to 800 ug/mL after 2 days by broth dilution method. The format is functional, organism-based.
The test system of the next test is Pseudomonas aeruginosa. Kind of test: Antimicrobial activity against Pseudomonas aeruginosa ATCC 10145 up to 800 ug/mL after 2 days by broth dilution method. The format is functional, organism-based.
The subject of another test is Klebsiella aerogenes. Kind of test: Antimicrobial activity against Enterobacter aerogenes ATCC 13048 up to 800 ug/mL after 2 days by broth dilution method. It counts as functional, organism-based.
The next test has as its system Penicillium chrysogenum. The test can be described thus: Antimicrobial activity against Penicillium chrysogenum ATCC 10106 up to 800 ug/mL after 5 days by broth dilution method. It counts as functional, organism-based.
Test [6] concerns Candida albicans. Kind of test: Antifungal activity against Candida albicans ATCC 18804 at 800 ug/mL after 2 days by broth dilution method. It counts as functional, organism-based.
Test [7] relates to Malassezia furfur. Kind of test: Antifungal activity against Pityrosporum ovale ATCC 14521 at 800 ug/mL after 3 days by broth dilution method. It counts as functional, organism-based.
Test [8] concerns Saccharomyces cerevisiae. The test can be described thus: Antifungal activity against Saccharomyces cerevisiae ATCC 7754 at 1600 ug/mL after 2 days by broth dilution method. It counts as functional, organism-based.
In another test the test system is Bacillus subtilis. The test can be described thus: Antimicrobial activity against Bacillus subtilis ATCC 9372 up to 800 ug/mL after 2 days by broth dilution method. It counts as functional. Particulars: ATCC 9372, 48 h.

Values after ≈ are worked out from the molar mass of the structure shown. Active and inactive are the calls of the source. The rule behind the calls is not given here.

The term MIC denotes the least concentration at which growth counts as inhibited. Higher therefore signals weaker potency. Consider `C/C=C\c1ccc(O)c(OC)c1` [ISOEUGENOL], for which the MIC is 400 µg/mL (≈ 2440 µM) with Saccharomyces cerevisiae [1], 400 µg/mL (≈ 2440 µM) with Candida albicans [2] and 200 µg/mL (≈ 1220 µM) in the test with Malassezia furfur [3].

Turning to `CC(C)[C@H]1OC(=O)C=C2C1=C[C@H]1OC(=O)[C@@]3(C)C[C@H](O)C[C@@]2(C)[C@@H]13`, the minimum inhibitory concentration (MIC) in the test with Saccharomyces cerevisiae [4] and in the test with Saccharomyces cerevisiae [1] was 800 µg/mL (≈ 2410 µM) each time. Besides, the result (in test [5]; in the test with Staphylococcus aureus; with Streptococcus mutans; in the test with Cutibacterium acnes; with Escherichia coli; in the test with Pseudomonas aeruginosa) was inactive. The result in the test on Klebsiella aerogenes and in the test with Penicillium chrysogenum was inactive.

Turning to `C/C=C/c1ccccc1`, the MIC with Saccharomyces cerevisiae [1] is 400 µg/mL (≈ 3380 µM); against Candida albicans [2] it was 400 µg/mL (≈ 3380 µM); in the test on Malassezia furfur [3] it was above 800 µg/mL.

Regarding `C=CCc1ccc2c(c1)OCO2` [SAFROLE], the MIC in the test on Saccharomyces cerevisiae [1], in the test with Candida albicans [2] and with Malassezia furfur [3] was 200 µg/mL (≈ 1230 µM) each time.

With `COc1ccc(O)c(C(C)(C)C)c1.COc1ccc(O)cc1C(C)(C)C` [BUTYLATED HYDROXYANISOLE], the minimum inhibitory concentration (MIC) against Saccharomyces cerevisiae [1] and in the test with Malassezia furfur [3] was 200 µg/mL in each case.

For the compound `COc1ccc(/C=C/C(=O)O)cc1` [4-METHOXYCINNAMIC ACID], the MIC against Saccharomyces cerevisiae [1] was 100 µg/mL (≈ 561 µM); against Candida albicans [2], 200 µg/mL (≈ 1120 µM); in the test on Malassezia furfur [3], above 800 µg/mL.

Regarding `CC(C)c1oc(=O)cc2c1[C@@H](O)[C@H]1OC(=O)[C@@]3(C)[C@@H](O)[C@H]4O[C@H]4[C@@]2(C)[C@@H]13` [NAGILACTONE C], the outcome (with Candida albicans [6]; in the test on Malassezia furfur [7]; in test [5]; with Staphylococcus aureus; with Streptococcus mutans; in the test on Cutibacterium acnes) was inactive. The result in the test on Escherichia coli, with Pseudomonas aeruginosa, with Klebsiella aerogenes, in the test on Penicillium chrysogenum and in the test with Saccharomyces cerevisiae [8] was inactive. In addition, the MIC in the test on Saccharomyces cerevisiae [1] and with Malassezia furfur [3] was above 1600 µg/mL in each case.

Turning to `C/C=C/c1ccc(OC)cc1` [ANETHOLE], the MIC against Saccharomyces cerevisiae [1], against Candida albicans [2] and in the test with Malassezia furfur [3] was 200 µg/mL (≈ 1350 µM) throughout.

On to `C/C=C/c1cc(OC)c(OC)cc1OC` [TRANS-ASARONE], for which the MIC worked out at 800 µg/mL (≈ 3840 µM) against Saccharomyces cerevisiae [1], 800 µg/mL (≈ 3840 µM) against Candida albicans [2] and 200 µg/mL (≈ 960 µM) against Malassezia furfur [3].

`O=C(O)c1ccc(O)cc1` [PARABEN]: the MIC against Saccharomyces cerevisiae [1] is 200 µg/mL (≈ 1450 µM); in the test with Malassezia furfur [3], 100 µg/mL (≈ 724 µM).

In the case of `C=CCc1ccc(OC)c(OC)c1` [METHYLEUGENOL], the MIC with Saccharomyces cerevisiae [1] was 800 µg/mL (≈ 4490 µM); in the test on Candida albicans [2] it was 800 µg/mL (≈ 4490 µM); in the test with Malassezia furfur [3], 200 µg/mL (≈ 1120 µM).

As to `C=CCc1ccc(O)c(OC)c1` [EUGENOL], the minimum inhibitory concentration (MIC) in the test on Saccharomyces cerevisiae [1] was 800 µg/mL (≈ 4870 µM); against Candida albicans [2], 800 µg/mL (≈ 4870 µM); with Malassezia furfur [3], 200 µg/mL (≈ 1220 µM).

With `C=CCc1ccccc1` [ALLYLBENZENE], the MIC against Saccharomyces cerevisiae [1] is 400 µg/mL (≈ 3380 µM); against Candida albicans [2], 400 µg/mL (≈ 3380 µM); with Malassezia furfur [3] it was above 800 µg/mL.

Consider `CC(C)[C@H]1OC(=O)C=C2C13O[C@@H]3[C@H]1OC(=O)[C@@]3(C)[C@@H](O)CC[C@@]2(C)[C@@H]13` (some centres not stated) [NAGILACTONE E], for which the minimum inhibitory concentration (MIC) against Saccharomyces cerevisiae [1] was 100 µg/mL (≈ 287 µM); against Candida albicans [2] it was 800 µg/mL (≈ 2300 µM); against Malassezia furfur [3], 50 µg/mL (≈ 144 µM); with Bacillus subtilis it was 50 µg/mL (≈ 144 µM). In addition, the result (in [5]; in the test on Staphylococcus aureus; in the test on Streptococcus mutans; with Cutibacterium acnes; in the test on Escherichia coli; in the test on Pseudomonas aeruginosa) was inactive. Besides, the outcome in the test on Klebsiella aerogenes and in the test with Penicillium chrysogenum was inactive.

Regarding `C/C=C/c1ccc2c(c1)OCO2` [ISOSAFROLE], the figures for the minimum inhibitory concentration (MIC) against Saccharomyces cerevisiae [1], in the test with Candida albicans [2] and with Malassezia furfur [3] were 200 µg/mL (≈ 1230 µM), 100 µg/mL (≈ 617 µM) and 100 µg/mL (≈ 617 µM), respectively.

Take `C/C=C/c1ccc(OC)c(OC)c1` [METHYLISOEUGENOL]: the MIC stood at 400 µg/mL (≈ 2240 µM) against Saccharomyces cerevisiae [1], 400 µg/mL (≈ 2240 µM) in the test on Candida albicans [2] and 200 µg/mL (≈ 1120 µM) against Malassezia furfur [3].
